{"source": "patent US6043258A", "about": "(Eli Lilly and Company, priority 1998, dated 2000)", "key": {"[1]": {"molecular_target": "5HT1D receptor subtype", "test": "5HT1D receptor affinity", "assay_type": "binding"}, "[2]": {"molecular_target": "muscarinic receptors (^3 H-oxotremorine-M binding)", "test": "^3 H-oxotremorine-M binding inhibition", "details": "radioligand ^3 H-oxotremorine-M; read-out: inhibition constant (Ki), binding of ^3 H-oxotremorine-M"}, "[3]": {"test_system": "D2 receptor subtype", "test": "pharmacological studies at D2 receptor subtype"}, "[4]": {"test_system": "m4 receptors (CHO m4 cells)", "test": "cAMP formation in CHO m4 cells treated with pertussis toxin", "assay_type": "cell-based", "excerpt": "Muscarinic agonists stimulate the formation of cAMP up to 10 fold in CHO m4 cells treated with pertussisi toxin and the pharmacology is consistent with the mediation by m4 receptors. Eckols K. Soc. Neurosci Abstr., 21:2040 (1995)."}}, "data": [{"smiles": "CCCCCCOc1nsnc1C1=CCCN(C)C1", "note": "[xanomeline, 3-(4-hexyloxy-1,2,5-thiadiazol-3-yl)-1,2,5,6-tetrahydro-1-methylpyridine]", "values": [{"measurement": "Ki", "setting": "[1]", "value": 180, "unit": "nM"}, {"measurement": "Ki", "setting": "[2]", "value": 2, "unit": "nM"}, {"measurement": "activity at the D2 receptor subtype", "setting": "[3]", "value": "active at the D2 receptor subtype"}, {"measurement": "stimulation of the formation of cAMP", "setting": "[4]", "value": "efficaciously and potently stimulated the formation of CAMP"}]}]}
